This is an account of results in ChEMBL document CHEMBL3596179, “Structural development of stabilized helical peptides as inhibitors of estrogen receptor (ER)-mediated transcription” (Bioorg Med Chem, 2015).

Data set [1] deals with T1, Estrogen receptor (Homo sapiens, UniProt P03372).
T1 sequence (P03372 whole entry): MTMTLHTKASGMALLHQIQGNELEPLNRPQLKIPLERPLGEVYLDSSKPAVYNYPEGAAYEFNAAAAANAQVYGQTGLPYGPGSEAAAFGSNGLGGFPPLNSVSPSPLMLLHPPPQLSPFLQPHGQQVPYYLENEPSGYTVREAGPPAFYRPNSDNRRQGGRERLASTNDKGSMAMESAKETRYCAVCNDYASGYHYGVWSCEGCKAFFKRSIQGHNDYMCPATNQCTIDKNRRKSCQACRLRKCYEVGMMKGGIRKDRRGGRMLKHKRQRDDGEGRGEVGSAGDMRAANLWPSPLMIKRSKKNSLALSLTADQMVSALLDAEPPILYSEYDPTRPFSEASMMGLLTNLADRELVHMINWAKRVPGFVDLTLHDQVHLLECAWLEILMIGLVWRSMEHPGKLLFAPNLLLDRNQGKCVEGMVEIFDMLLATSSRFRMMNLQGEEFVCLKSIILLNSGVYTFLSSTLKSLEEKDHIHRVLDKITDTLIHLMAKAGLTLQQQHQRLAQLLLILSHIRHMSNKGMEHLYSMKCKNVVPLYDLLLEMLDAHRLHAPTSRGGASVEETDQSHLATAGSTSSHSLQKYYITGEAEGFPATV
Description: Inhibition of estrogen receptor alpha (unknown origin)-SRC1 coactivator interaction incubated for 1 hr by receptor cofactor assay system based method

Data set [2] concerns the target T2, Estrogen receptor (Homo sapiens) (UniProt P03372).
T2 sequence (whole entry): T1 sequence (P03372 whole entry)
The data set is described as follows: Inhibition of estrogen receptor-mediated gene expression in human T47D cells assessed as reduction in estrogen-induced pS2 mRNA expression at 3 to 30 uM incubated for 24 hrs by qPCR method. It is filed as cell-based. On the technique in general: Real-time PCR tracks product formation cycle by cycle.

Data set [3] has as its system T47D. The data set is described as follows: Drug uptake in human T47D cells at 1 uM incubated for 3 hrs by Hoechst 33342 dye based confocal laser scanning microscopy. It is filed as ADME, cell-based.
For data set [4], the target named is T2, Estrogen receptor (Homo sapiens). The data set is described as follows: Inhibition of estrogen receptor-mediated gene expression in human T47D cells assessed as reduction in estrogen-induced pS2 mRNA expression at 3 uM incubated for 24 hrs by qPCR method. It is filed as cell-based.
Data set [5] has the same target. The conditions noted are these: T47D, 10 uM.
Description: Inhibition of estrogen receptor-mediated gene expression in human T47D cells assessed as reduction in estrogen-induced pS2 mRNA expression at 10 uM incubated for 24 hrs by qPCR method

Calls of active or inactive are those of the source. The rule behind the calls is not given here. Positions of bridges follow the written chain, without caps; N, C: chain ends. Non-standard residues stand in square brackets, D forms with d. Residues, ends and D or L forms follow the SMILES beside them. ξ: configuration not given here. ξtBuAla = CC(C)(C)CC(N)C(=O)O; ξAbu = CCC(N)C(=O)O

As for H-HKILHRLLQGGGRRRRRRR-NH2, the IC50 (usually the concentration needed to halve the response being measured) in data set [1] is above 1000 nM. Moreover, in data set [2], the inhibition – broadly, the drop in the measured response relative to a control, in per cent – was “inactive”.

`CCC(NC(=O)[C@H](CC(C)C)NC(=O)[C@@H](NC(=O)C(CC)NC(=O)[C@@H](N)CCCNC(=N)N)[C@@H](C)CC)C(=O)N[C@@H](CCCNC(=N)N)C(=O)NC(CC(C)(C)C)C(=O)N[C@@H](CC(C)C)C(=O)NCC(N)=O` (stereo not given in full) (H-R[ξAbu]IL[ξAbu]R[ξtBuAla]LG-NH2) showed an IC50 in data set [1] of 670 nM.

In data set [1], `CCC(NC(=O)[C@@H](N)CCCNC(=N)N)C(=O)N[C@H](C(=O)N[C@@H](CC(C)C)C(=O)N[C@@H](Cc1cnc[nH]1)C(=O)N[C@@H](CCCNC(=N)N)C(=O)NC(CC(C)(C)C)C(=O)N[C@@H](CC(C)C)C(=O)N[C@@H](CCC(N)=O)C(N)=O)[C@@H](C)CC` (stereo not given in full) (H-R[ξAbu]ILHR[ξtBuAla]LQ-NH2) yielded a half-inhibitory concentration (IC50) above 1000 nM.

For `C=CCC(NC(=O)[C@H](CC(C)C)NC(=O)[C@@H](NC(=O)[C@@H](CC=C)NC(=O)[C@@H](N)CCCNC(=N)N)[C@@H](C)CC)C(=O)N[C@@H](CCCNC(=N)N)C(=O)NC(CC(C)(C)C)C(=O)N[C@@H](CC(C)C)C(=O)N[C@@H](CCC(N)=O)C(N)=O` (stereo not given in full), the 50% inhibitory concentration (IC50) in data set [1] is above 1000 nM.

Take H-HKILHRLLQ-NH2: in data set [1], the IC50 was above 1000 nM.

Turning to `CC[C@H](C)[C@@H]1NC(=O)[C@H](NC(=O)[C@H](CCCCN)NC(=O)c2ccc3c(c2)C2(OC3=O)c3ccc(O)cc3Oc3cc(O)ccc32)CSSC[C@@H](C(=O)N[C@@H](CCCNC(=N)N)C(=O)N[C@@H](CC(C)C)C(=O)N[C@@H](CC(C)C)C(=O)N[C@@H](CCC(N)=O)C(=O)NCC(=O)NCC(=O)NCC(=O)N[C@@H](CCCNC(=N)N)C(=O)N[C@@H](CCCNC(=N)N)C(=O)N[C@@H](CCCNC(=N)N)C(=O)N[C@@H](CCCNC(=N)N)C(=O)N[C@@H](CCCNC(=N)N)C(=O)N[C@@H](CCCNC(=N)N)C(=O)N[C@@H](CCCNC(=N)N)C(N)=O)NC(=O)[C@H](CC(C)C)NC1=O`, the Drug uptake entry in data set [3] is “Active”.

As for `CC[C@H](C)[C@@H]1NC(=O)[C@H](NC(=O)[C@@H](N)CCCNC(=N)N)C/C=C/C[C@@H](C(=O)N[C@@H](CCCNC(=N)N)C(=O)NC(CC(C)(C)C)C(=O)N[C@@H](CC(C)C)C(=O)N[C@@H](CCC(N)=O)C(N)=O)NC(=O)[C@H](CC(C)C)NC1=O` (stereo not given in full), in data set [1], the half-inhibitory concentration (IC50) worked out at 390 nM.

For the compound `N=C(N)NCCC[C@H](NC(=O)[C@H](CCCNC(=N)N)NC(=O)[C@H](CCCNC(=N)N)NC(=O)[C@H](CCCNC(=N)N)NC(=O)[C@H](CCCNC(=N)N)NC(=O)[C@H](CCCNC(=N)N)NC(=O)[C@H](CCCNC(=N)N)NC(=O)[C@@H](N)Cc1ccc(O)cc1)C(N)=O`, the IC50 in data set [1] was above 1000 nM. The inhibition entry in data set [2] is “inactive”.

Take `CC[C@H](C)[C@@H]1NC(=O)[C@H](NC(=O)[C@@H](N)CCCNC(=N)N)CCCC[C@@H](C(=O)N[C@@H](CCCNC(=N)N)C(=O)NC(CC(C)(C)C)C(=O)N[C@@H](CC(C)C)C(=O)N[C@@H](CCC(N)=O)C(N)=O)NC(=O)[C@H](CC(C)C)NC1=O` (stereo not given in full): in data set [1], the half-maximal inhibitory concentration (IC50) is above 1000 nM.

Turning to `CCC(NC(=O)[C@H](CC(C)C)NC(=O)[C@@H](NC(=O)[C@H](Cc1cnc[nH]1)NC(=O)[C@@H](N)CCCNC(=N)N)[C@@H](C)CC)C(=O)N[C@@H](CCCNC(=N)N)C(=O)NC(CC(C)(C)C)C(=O)N[C@@H](CC(C)C)C(=O)N[C@@H](CCC(N)=O)C(N)=O` (stereo not given in full) (H-RHIL[ξAbu]R[ξtBuAla]LQ-NH2), the IC50 in data set [1] is 620 nM.

`CC[C@H](C)[C@@H]1NC(=O)[C@H](NC(=O)[C@@H](N)CCCCN)CSSC[C@@H](C(=O)N[C@@H](CCCNC(=N)N)C(=O)N[C@@H](CC(C)C)C(=O)N[C@@H](CC(C)C)C(=O)N[C@@H](CCC(N)=O)C(N)=O)NC(=O)[C@H](CC(C)C)NC1=O` (H-K[dC]ILCRLLQ-NH2; disulfide 2-5) registered an IC50 in data set [1] of 35 nM.

With `CC[C@H](C)[C@@H]1NC(=O)[C@H](NC(=O)[C@@H](N)CCCNC(=N)N)C/C=C/C[C@@H](C(=O)N[C@@H](CCCNC(=N)N)C(=O)NC(CC(C)(C)C)C(=O)N[C@@H](CC(C)C)C(=O)N[C@@H](CCC(N)=O)C(=O)NCC(=O)NCC(=O)NCC(=O)N[C@@H](CCCNC(=N)N)C(=O)N[C@@H](CCCNC(=N)N)C(=O)N[C@@H](CCCNC(=N)N)C(=O)N[C@@H](CCCNC(=N)N)C(=O)N[C@@H](CCCNC(=N)N)C(=O)N[C@@H](CCCNC(=N)N)C(=O)N[C@@H](CCCNC(=N)N)C(N)=O)NC(=O)[C@H](CC(C)C)NC1=O` (stereo not given in full), the inhibition result in data set [2] was “inactive”.

`CC[C@H](C)[C@@H]1NC(=O)[C@H](NC(=O)[C@H](CCCNC(=N)N)NC(=O)CNC(=O)CNC(=O)CNC(=O)[C@H](CCCNC(=N)N)NC(=O)[C@H](CCCNC(=N)N)NC(=O)[C@H](CCCNC(=N)N)NC(=O)[C@H](CCCNC(=N)N)NC(=O)[C@H](CCCNC(=N)N)NC(=O)[C@H](CCCNC(=N)N)NC(=O)[C@@H](N)CCCNC(=N)N)CSSC[C@@H](C(=O)N[C@@H](CCCNC(=N)N)C(=O)NC(CC(C)(C)C)C(=O)N[C@@H](CC(C)C)C(=O)N[C@@H](CCC(N)=O)C(N)=O)NC(=O)[C@H](CC(C)C)NC1=O` (stereo not given in full) registered a half-inhibitory concentration (IC50) in data set [1] above 1000 nM. Moreover, the inhibition result in data set [2] was “inactive”.

`CC[C@H](C)[C@@H]1NC(=O)[C@H](NC(=O)[C@@H](N)CCCNC(=N)N)CSSC[C@@H](C(=O)N[C@@H](CCCNC(=N)N)C(=O)NC(CC(C)(C)C)C(=O)N[C@@H](CC(C)C)C(=O)N[C@@H](CCC(N)=O)C(=O)NCC(=O)NCC(=O)NCC(=O)N[C@@H](CCCNC(=N)N)C(=O)N[C@@H](CCCNC(=N)N)C(=O)N[C@@H](CCCNC(=N)N)C(=O)N[C@@H](CCCNC(=N)N)C(=O)N[C@@H](CCCNC(=N)N)C(=O)N[C@@H](CCCNC(=N)N)C(=O)N[C@@H](CCCNC(=N)N)C(N)=O)NC(=O)[C@H](CC(C)C)NC1=O` (stereo not given in full): in data set [4], the inhibition was found to be 87%. In data set [1], this compound yielded an IC50 of 94 nM.

Consider `CC[C@H](C)[C@@H]1NC(=O)[C@H](NC(=O)[C@@H](N)CCCCN)CSSC[C@@H](C(=O)N[C@@H](CCCNC(=N)N)C(=O)N[C@@H](CC(C)C)C(=O)N[C@@H](CC(C)C)C(=O)N[C@@H](CCC(N)=O)C(=O)NCC(=O)NCC(=O)NCC(=O)N[C@@H](CCCNC(=N)N)C(=O)N[C@@H](CCCNC(=N)N)C(=O)N[C@@H](CCCNC(=N)N)C(=O)N[C@@H](CCCNC(=N)N)C(=O)N[C@@H](CCCNC(=N)N)C(=O)N[C@@H](CCCNC(=N)N)C(=O)N[C@@H](CCCNC(=N)N)C(N)=O)NC(=O)[C@H](CC(C)C)NC1=O`, for which the inhibition in data set [5] is 95%; in data set [4], 20%. In data set [1], the half-maximal inhibitory concentration (IC50) came out at 749 nM.

On to `CC[C@H](C)[C@@H]1NC(=O)[C@H](NC(=O)[C@@H](N)CCCNC(=N)N)C/C=C\C[C@@H](C(=O)N[C@@H](CCCNC(=N)N)C(=O)NC(CC(C)(C)C)C(=O)N[C@@H](CC(C)C)C(=O)N[C@@H](CCC(N)=O)C(=O)NCC(=O)NCC(=O)NCC(=O)N[C@@H](CCCNC(=N)N)C(=O)N[C@@H](CCCNC(=N)N)C(=O)N[C@@H](CCCNC(=N)N)C(=O)N[C@@H](CCCNC(=N)N)C(=O)N[C@@H](CCCNC(=N)N)C(=O)N[C@@H](CCCNC(=N)N)C(=O)N[C@@H](CCCNC(=N)N)C(N)=O)NC(=O)[C@H](CC(C)C)NC1=O` (stereo not given in full), for which, in data set [2], the inhibition result was “inactive”.

Regarding `CC[C@H](C)[C@@H]1NC(=O)[C@H](NC(=O)[C@H](CCCCN)NC(=O)c2ccc3c(c2)C2(OC3=O)c3ccc(O)cc3Oc3cc(O)ccc32)CSSC[C@@H](C(=O)N[C@@H](CCCNC(=N)N)C(=O)N[C@@H](CC(C)C)C(=O)N[C@@H](CC(C)C)C(=O)N[C@@H](CCC(N)=O)C(N)=O)NC(=O)[C@H](CC(C)C)NC1=O`, in data set [3], the Drug uptake result is “Not Active”.

For `CC[C@H](C)[C@@H]1NC(=O)[C@H](NC(=O)[C@@H](N)CCCNC(=N)N)CSSC[C@@H](C(=O)N[C@@H](CCCNC(=N)N)C(=O)NC(CC(C)(C)C)C(=O)N[C@@H](CC(C)C)C(=O)N[C@@H](CCC(N)=O)C(N)=O)NC(=O)[C@H](CC(C)C)NC1=O` (stereo not given in full), the IC50 in data set [1] turned out to be 13 nM.

`CC[C@H](C)[C@@H]1NC(=O)[C@H](NC(=O)[C@@H](N)CCCNC(=N)N)C/C=C\C[C@@H](C(=O)N[C@@H](CCCNC(=N)N)C(=O)NC(CC(C)(C)C)C(=O)N[C@@H](CC(C)C)C(=O)N[C@@H](CCC(N)=O)C(N)=O)NC(=O)[C@H](CC(C)C)NC1=O` (stereo not given in full) gave an IC50 in data set [1] of 110 nM.
